Earlier results as cited in patent US9585842B2, “Sustained release guanfacine HCL formulation” (SALMON PHARMA GMBH, priority 2013, dated 2017).
Where a name gives a salt, the structure may show the parent alone.

Settings: low pH versus higher pH values

N=C(N)NC(=O)Cc1c(Cl)cccc1Cl [Guanfacine hydrochloride]
pH dependent solubility: more soluble at low pH values than higher pH values
